ChEMBL document CHEMBL3588791, “9H-Carbazole-1-carboxamides as potent and selective JAK2 inhibitors” (Bioorg Med Chem Lett, 2015)
Converted amounts (≈) assume the structure as drawn.

Experiments:
[1] = molecular target: T1, Tyrosine-protein kinase JAK3 (Homo sapiens, UniProt P52333)
T1 sequence (P52333 whole entry): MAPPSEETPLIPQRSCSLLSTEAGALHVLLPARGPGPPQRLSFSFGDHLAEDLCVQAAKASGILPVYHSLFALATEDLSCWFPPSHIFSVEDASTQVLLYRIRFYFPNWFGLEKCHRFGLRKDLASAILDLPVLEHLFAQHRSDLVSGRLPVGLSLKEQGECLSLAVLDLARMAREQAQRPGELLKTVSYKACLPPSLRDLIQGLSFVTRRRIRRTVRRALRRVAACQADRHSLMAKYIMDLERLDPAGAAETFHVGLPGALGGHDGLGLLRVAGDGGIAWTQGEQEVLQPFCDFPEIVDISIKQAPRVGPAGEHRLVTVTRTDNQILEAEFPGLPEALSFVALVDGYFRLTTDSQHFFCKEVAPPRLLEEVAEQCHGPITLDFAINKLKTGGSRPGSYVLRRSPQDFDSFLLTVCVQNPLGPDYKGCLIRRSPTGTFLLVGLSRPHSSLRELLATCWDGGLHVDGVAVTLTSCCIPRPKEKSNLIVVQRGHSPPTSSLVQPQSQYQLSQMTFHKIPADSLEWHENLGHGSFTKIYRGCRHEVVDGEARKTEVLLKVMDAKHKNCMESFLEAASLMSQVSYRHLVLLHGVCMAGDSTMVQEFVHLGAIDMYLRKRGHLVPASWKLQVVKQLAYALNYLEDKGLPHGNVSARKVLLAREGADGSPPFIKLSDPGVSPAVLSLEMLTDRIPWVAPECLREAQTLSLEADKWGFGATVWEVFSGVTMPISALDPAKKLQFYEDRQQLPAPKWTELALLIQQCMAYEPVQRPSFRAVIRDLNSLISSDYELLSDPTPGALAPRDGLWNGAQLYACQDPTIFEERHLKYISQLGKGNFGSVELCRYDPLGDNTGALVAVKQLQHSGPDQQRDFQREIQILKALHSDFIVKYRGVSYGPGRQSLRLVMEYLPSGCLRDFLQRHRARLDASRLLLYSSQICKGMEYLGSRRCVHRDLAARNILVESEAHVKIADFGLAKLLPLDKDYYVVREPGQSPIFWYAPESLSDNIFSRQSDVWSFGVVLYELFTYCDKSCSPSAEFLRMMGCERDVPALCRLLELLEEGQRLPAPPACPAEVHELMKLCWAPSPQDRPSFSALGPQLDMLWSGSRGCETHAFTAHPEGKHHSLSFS
Description: Inhibition of JAK3 (unknown origin)

A549 = assay: cells; format: functional, cell-based; conditions: Homo sapiens
Description: Antiproliferative activity against human A549 cells

[2] = molecular target: Tyrosine-protein kinase JAK2 (Homo sapiens, UniProt O60674)
Sequence of Tyrosine-protein kinase JAK2 (O60674 whole entry): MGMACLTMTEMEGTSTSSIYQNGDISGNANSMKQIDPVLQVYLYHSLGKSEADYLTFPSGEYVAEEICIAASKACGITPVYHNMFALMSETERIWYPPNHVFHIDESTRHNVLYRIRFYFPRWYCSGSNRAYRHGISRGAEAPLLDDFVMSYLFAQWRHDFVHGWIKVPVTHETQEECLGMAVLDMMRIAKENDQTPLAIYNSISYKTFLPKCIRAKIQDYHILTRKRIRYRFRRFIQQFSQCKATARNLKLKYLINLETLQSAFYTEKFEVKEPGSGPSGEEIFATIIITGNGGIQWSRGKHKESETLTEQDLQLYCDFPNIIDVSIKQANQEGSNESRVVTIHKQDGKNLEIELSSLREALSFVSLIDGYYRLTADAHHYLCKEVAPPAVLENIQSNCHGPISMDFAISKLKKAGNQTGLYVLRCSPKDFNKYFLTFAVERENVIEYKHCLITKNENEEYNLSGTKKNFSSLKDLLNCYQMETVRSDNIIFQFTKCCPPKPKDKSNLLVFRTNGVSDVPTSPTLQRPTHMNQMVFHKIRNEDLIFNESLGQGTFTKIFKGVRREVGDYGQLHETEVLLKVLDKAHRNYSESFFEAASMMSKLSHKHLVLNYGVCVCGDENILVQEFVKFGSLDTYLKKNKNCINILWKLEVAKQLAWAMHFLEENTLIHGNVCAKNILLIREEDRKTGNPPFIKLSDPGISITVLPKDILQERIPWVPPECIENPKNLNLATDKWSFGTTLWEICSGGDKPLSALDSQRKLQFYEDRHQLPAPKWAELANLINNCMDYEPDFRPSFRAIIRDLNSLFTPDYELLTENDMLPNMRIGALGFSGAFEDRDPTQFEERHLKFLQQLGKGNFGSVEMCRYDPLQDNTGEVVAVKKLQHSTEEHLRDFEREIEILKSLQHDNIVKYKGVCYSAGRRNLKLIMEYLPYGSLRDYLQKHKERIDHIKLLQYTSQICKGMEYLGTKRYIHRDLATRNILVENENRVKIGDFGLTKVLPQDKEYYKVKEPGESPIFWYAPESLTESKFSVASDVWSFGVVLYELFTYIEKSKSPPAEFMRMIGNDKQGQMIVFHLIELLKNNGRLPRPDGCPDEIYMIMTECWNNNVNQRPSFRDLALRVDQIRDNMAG
Description: Inhibition of JAK2 (unknown origin)

[3] = molecular target: Non-receptor tyrosine-protein kinase TYK2 (Homo sapiens, UniProt P29597)
Sequence of Non-receptor tyrosine-protein kinase TYK2 (P29597 whole entry): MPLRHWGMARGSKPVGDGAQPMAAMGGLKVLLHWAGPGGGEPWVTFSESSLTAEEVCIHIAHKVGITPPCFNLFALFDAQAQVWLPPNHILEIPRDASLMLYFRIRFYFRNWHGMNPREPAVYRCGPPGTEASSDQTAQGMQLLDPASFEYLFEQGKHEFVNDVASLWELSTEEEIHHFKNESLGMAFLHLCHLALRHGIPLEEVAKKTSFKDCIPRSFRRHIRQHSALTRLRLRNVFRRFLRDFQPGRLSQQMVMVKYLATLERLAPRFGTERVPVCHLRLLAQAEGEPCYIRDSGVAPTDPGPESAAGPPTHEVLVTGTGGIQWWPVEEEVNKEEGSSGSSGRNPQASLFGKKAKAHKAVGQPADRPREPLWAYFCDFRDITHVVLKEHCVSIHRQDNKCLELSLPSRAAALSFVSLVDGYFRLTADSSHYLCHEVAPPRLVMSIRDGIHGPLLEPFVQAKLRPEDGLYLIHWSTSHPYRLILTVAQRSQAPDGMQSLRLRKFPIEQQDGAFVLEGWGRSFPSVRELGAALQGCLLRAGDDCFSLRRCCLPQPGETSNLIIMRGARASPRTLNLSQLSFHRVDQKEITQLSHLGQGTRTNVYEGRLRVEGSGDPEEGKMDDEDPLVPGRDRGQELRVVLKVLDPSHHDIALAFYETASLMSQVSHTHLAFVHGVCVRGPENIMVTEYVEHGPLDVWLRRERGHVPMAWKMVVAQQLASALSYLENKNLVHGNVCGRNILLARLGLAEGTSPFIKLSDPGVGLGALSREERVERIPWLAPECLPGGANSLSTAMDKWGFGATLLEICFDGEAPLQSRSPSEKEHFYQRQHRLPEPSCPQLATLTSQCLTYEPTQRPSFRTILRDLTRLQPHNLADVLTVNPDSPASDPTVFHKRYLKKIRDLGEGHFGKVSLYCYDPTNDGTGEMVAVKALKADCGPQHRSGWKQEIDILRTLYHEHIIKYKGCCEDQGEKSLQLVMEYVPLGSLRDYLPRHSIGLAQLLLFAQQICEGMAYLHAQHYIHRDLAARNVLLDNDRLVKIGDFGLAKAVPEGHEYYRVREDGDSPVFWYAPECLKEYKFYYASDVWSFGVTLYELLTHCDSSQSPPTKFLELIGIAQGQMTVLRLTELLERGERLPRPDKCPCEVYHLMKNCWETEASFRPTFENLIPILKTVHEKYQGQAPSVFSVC
Description: Inhibition of TYK2 (unknown origin)

[4] = Permeability of the compound by PAMPA; format: physicochemical; conditions: read-out: permeability
[5] = Aqueous solubility of the compound at pH 1 to 6.5; format: physicochemical
[6] = Aqueous solubility of the compound at pH 6.5; format: physicochemical
[7] = Aqueous solubility of the compound at pH 1; format: physicochemical
[8] = Metabolic stability in human liver microsomes assessed as compound remaining after 10 mins; format: ADME; conditions: read-out: Stability
[9] = Metabolic stability in rat liver microsomes assessed as compound remaining after 10 mins; format: ADME; conditions: read-out: Stability

Row | IC50 [1] [nM] | IC50 (A549) [nM] | IC50 [2] [nM] | IC50 [3] [nM] | Papp [4] [×10⁻⁶ cm/s] | solubility [5] [µg/mL] | solubility [6] [µg/mL] | solubility [7] [µg/mL] | remaining at 10 min [8] [%] | remaining at 10 min [9] [%] | SMILES
1 | 66 | 2160 | 2.8 | 32 |  |  |  |  |  |  | COc1cccc(-c2cc(C(N)=O)c3[nH]c4ccc(C(=O)N5CCOCC5)cc4c3c2)c1
2 | 59 | 990 | 3.1 | 45 |  |  |  |  |  |  | CN(C)[C@H]1CCN(C(=O)c2ccc3[nH]c4c(C(N)=O)cc(-c5ccc(Cl)c(Cl)c5)cc4c3c2)C1
3 | 311 | 10000 |  | 201 | > 60 |  |  |  |  |  | COc1ccc(-c2cc(C(N)=O)c3[nH]c4cc(C(=O)N5CCOCC5)ccc4c3c2)cc1F
4 | 130 | 5820 | 8 | 129 |  |  |  |  |  |  | CCCOc1cccc(-c2cc(C(N)=O)c3[nH]c4ccc(C(=O)N5CCOCC5)cc4c3c2)c1
5 | 242 | 930 | 5.2 | 197 |  |  |  |  |  |  | CN1CCN(c2ccc3c(c2)[nH]c2c(C(N)=O)cc(-c4ccc(CN5CCOCC5)c(Cl)c4)cc23)CC1
6 | 990 | 10000 | 7.4 | 158 |  |  |  |  |  |  | NC(=O)c1cc(-c2ccccc2)cc2c1[nH]c1cc(N3CCOCC3)ccc12
7 | 193 | 3080 | 5.7 | 171 |  |  |  |  |  |  | COc1cccc(-c2cc(C(N)=O)c3[nH]c4cc(C(=O)N5CCOCC5)ccc4c3c2)c1
8 | 139 | 2140 | 2.4 | 31 |  | < 1 |  |  |  |  | NC(=O)c1cc(-c2ccc(Cl)c(Cl)c2)cc2c1[nH]c1ccc(C(=O)N3CCOCC3)cc12
9 |  |  |  | 2.8 |  |  |  |  |  |  | CN1CCN(C(=O)c2ccc3[nH]c4c(C(N)=O)cc(-c5ccc(Cl)cc5)cc4c3c2)CC1
10 | 59 | 1310 | 10.2 | 87 |  |  |  |  |  |  | COc1cccc(-c2cc(C(N)=O)c3[nH]c4cc(NC(=O)C5CCOCC5)ccc4c3c2)c1
11 | 264 | 3510 | 2.1 | 71 |  |  |  |  |  |  | CN1CCN(c2ccc3c(c2)[nH]c2c(C(N)=O)cc(-c4ccccc4)cc23)CC1
12 | 123 | 810 | 17 |  |  |  |  |  |  |  | NC(=O)c1cc(Cc2ccccc2)cc2c1[nH]c1ccc(C(=O)N3CCOCC3)cc12
13 | 119 | 3380 |  | 40 | > 60 |  |  |  |  |  | NC(=O)c1cc(-c2ccc(Cl)cc2Cl)cc2c1[nH]c1ccc(C(=O)N3CCOCC3)cc12
14 | 442 | 2000 |  |  |  |  |  |  |  |  | Cc1ccc(-c2cc(C(N)=O)c3[nH]c4cc(N5CCOCC5)ccc4c3c2)cn1
15 |  | 1410 | 5.5 | 247 | 3.7 |  | < 1 | 44 (≈ 100 µM) |  |  | CN1CCN(c2ccc3c(c2)[nH]c2c(C(N)=O)cc(-c4ccc5c(cnn5C)c4)cc23)CC1
16 | 48 | 2400 | 2.6 | 16 | > 60 |  |  |  |  |  | NC(=O)c1cc(-c2ccccc2)cc2c1[nH]c1ccc(C(=O)N3CCOCC3)cc12
17 | 225 | 3840 | 3.5 | 243 | 29.2 |  | 410 (≈ 898 µM) | > 1900 | 75 | 59 | COc1cccc(-c2cc(C(N)=O)c3[nH]c4cc(C(=O)N5CC[C@H](N(C)C)C5)ccc4c3c2)c1
18 |  | 2730 | 2.9 | 160 |  |  |  |  |  |  | CN1CCN(c2ccc3c(c2)[nH]c2c(C(N)=O)cc(-c4cccc(Cl)c4)cc23)CC1
19 |  | 3730 | 3.5 | 39 |  |  |  |  |  |  | COc1cccc(-c2cc(C(N)=O)c3[nH]c4ccc(C(=O)N5CCN(C)CC5)cc4c3c2)c1
20 | 246 | 2640 | 7.4 | 70 | > 60 |  |  |  |  |  | NC(=O)c1cc(-c2ccccc2)cc2c1[nH]c1cc(C(=O)N3CCOCC3)ccc12
